This passage reports melting point results from patent publication US6566376B1, “Diphenyl-piperidine derivative” (AstraZeneca UK Limited, priority 1999, dated 2003).

Counter-ions that a name gives are not always drawn.

`Cc1ccc(Cn2ccc(CN3CCC(c4ccccc4)(c4ccccc4)CC3)n2)cc1` (as salt: hydrochloride) showed a melting point of 147 to 148 °C.
The same measure for `Clc1ccc(Cn2nncc2CN2CCC(c3ccccc3)(c3ccccc3)CC2)cc1`: 195 °C.
The same measure for `Cc1ccc(Cn2ccc(CN3CCC(c4ccccc4)(c4ccccc4)CC3)n2)cc1C`: 139 to 140 °C.
The figure for `OCc1cn(Cc2ccc(Cl)cc2)nc1CN1CCC(c2ccccc2)(c2ccccc2)CC1` is 104 to 105 °C.
`Clc1ccc(Cc2ncc(CN3CCC(c4ccccc4)(c4ccccc4)CC3)[nH]2)cc1` (as salt: hydrochloride) showed a melting point of 186 to 187 °C.
The figure for `Clc1ccc(Cn2cc(CN3CCC(c4ccccc4)(c4ccccc4)CC3)nn2)cc1` is 148 °C; for `NC(=O)c1c(CN2CCC(c3ccccc3)(c3ccccc3)CC2)ncn1Cc1ccc(Cl)cc1` it is 227 to 228 °C.
The same measure for `O=C(O)c1c(CN2CCC(c3ccccc3)(c3ccccc3)CC2)ncn1Cc1ccc(Cl)cc1`: 135 to 136 °C.
The figure for `O=C(c1cnc(Cc2ccc(Cl)cc2)[nH]1)N1CCC(c2ccccc2)(c2ccccc2)CC1` [Example 23, [2-(4-Chlorobenzyl)-1H-imidazol-5-yl](4,4-diphenyl-1-piperidinyl)methanone] is 105 to 106 °C; for `FC(F)(F)c1ccc(Cn2ccc(CN3CCC(c4ccccc4)(c4ccccc4)CC3)n2)cc1` (as salt: hydrochloride) it is 66 to 67 °C.
Turning to `Fc1ccc(Cn2ccc(CN3CCC(c4ccccc4)(c4ccccc4)CC3)n2)cc1` (as salt: hydrochloride), the melting point fell in the range of 192 to 193 °C.
The figure for `Clc1ccc(Cn2ccc(CN3CCC(c4ccccc4)(c4ccccc4)CC3)n2)c(Cl)c1` (as salt: hydrochloride) is 101 to 102 °C; for `Clc1ccc(Cn2cnc(CN3CCC(c4ccccc4)(c4ccccc4)CC3)c2)cc1` (as salt: hydrochloride) it is 254 to 255 °C.
The figure for `Clc1cccc(Cn2ccc(CN3CCC(c4ccccc4)(c4ccccc4)CC3)n2)c1` is 136 to 137 °C; for `Clc1ccc(Cn2ccc(CN3CCC(c4ccccc4)(c4ccccc4)CC3)n2)cc1` (as salt: hydrochloride) it is 137 to 138 °C.
The figure for `Clc1ccc(Cn2ccc(CN3CCC(c4ccccc4)(c4ccccc4)CC3)n2)cc1Cl` (as salt: hydrochloride) is 191 to 192 °C; for `CN(C)C(=O)COc1cc(Cl)ccc1Cn1ccc(CN2CCC(c3ccccc3)(c3ccccc3)CC2)n1` (as salt: hydrochloride) it is 181 to 182 °C; for `COc1cc(Cl)ccc1Cn1ccc(CN2CCC(c3ccccc3)(c3ccccc3)CC2)n1` (as salt: hydrochloride) it is 73 to 74 °C.
`O=Cc1cn(Cc2ccc(Cl)cc2)nc1CN1CCC(c2ccccc2)(c2ccccc2)CC1` registered a melting point of 133 to 134 °C.
In turn, `Oc1cc(Cl)ccc1Cn1ccc(CN2CCC(c3ccccc3)(c3ccccc3)CC2)n1` (as salt: hydrochloride) registered a melting point of 260 to 261 °C.
